Data: article PMC11203266, “Continuous evolution of compact protein degradation tags regulated by selective molecular glues” (Science (New York, N.Y.), 2024)

Tested on: SD40 fusions with Nluc, Fluc, and PRKRA
Assay: Immunoblot, degradation of exogenously expressed SD40 fusion proteins in HEK293T cells
Type: cell-based, human
Protocol: To test the versatility of SD40, we generated five stable HEK293T cell lines that exogenously express N- or C-terminal SD40 fusions with Nluc, Fluc, and the kinase activator PRKRA. […] To investigate whether SD40 targets unintended neosubstrates for degradation, we performed global proteomics using HEK293T cells stably expressing SD40–eGFP.
HEK293T or K562 cells were plated at a density of 1.6 x 10^5 cells/well in a 24-well plate coated with poly-D-lysine (Corning) in 1 mL media (DMEM + 10% FBS for HEK293T cells and RPMI + 10% FBS for K562 cells). After 16–18 hrs, cells were treated with either DMSO or the indicated concentration of small molecules to a 0.5% final concentration of DMSO. Plates were incubated at 37 °C, 5% CO2 for 24 hours for all cell lines except endogenously tagged PLK1–SD40 HEK293T cells, which were incubated for 2 hours. Cells were washed with PBS and then lysed for 30 minutes at 4 °C in radioimmunoprecipitation assay (RIPA; 25 mM Tris-HCl, 150 mM NaCl, 1% NP-40, 1% sodium deoxycholate, 0.1% SDS, pH ~ 7.6) buffer containing 1 mM phenylmethylsulfonyl fluoride (PMSF; Sigma Aldrich) and 1 x EDTA-free protease inhibitor cocktail (Roche). Lysates were centrifuged for 20 min @18,000 x g to isolate the soluble fractions. Protein concentration in clarified lysates was quantified using Pierce BCA Protein Assay Kit (Thermo Scientific) according to the manufacturer’s protocol. Clarified lysates were mixed with NuPAGE LDS Sample Buffer (Thermo NP0007) containing 10 mM DTT and boiled for 10 minutes. Gel electrophoresis was performed on boiled samples using polyacrylamide gels (Invitrogen NP0329BOX) with equal amounts of total protein in each lane. Proteins were transferred to nitrocellulose membranes (Invitrogen IB23001) using the iBlot 2 (Invitrogen IB21001) P0 protocol. After transfer, membranes were blocked in blocking buffer (50 mM Tris-HCl, 150 mM NaCl, 0.5% Tween-20, 1% bovine serum albumin, pH 7.4) for 1 hr at RT and then incubated with primary antibody overnight at 4 °C in blocking buffer. […]

## O=C1CCC(N2C(=O)c3ccc(N4CCOCC4)cc3C2=O)C(=O)N1 (stereo not drawn) [PT-179]
1 μM PT-179, SD40-PRKRA
  time at which PRKRA degradation occurred: ≤ 10 min
  time to near complete PRKRA degradation (in words): nearly complete within one hour
24 hrs, 1 nM-10 µM
  degradation of N- or C-terminal SD40 fusion constructs (in words): robust dose-dependent degradation
